Experiments:
[1] = test system: mitochondria isolated from livers of WT and Sqrdl^ΔN/ΔN mice; experiment: Oxygen consumption of liver mitochondria (Clark-type electrode); set-up: species or system mouse; settings: 10-μM NaHS supply
Method: Mitochondria were isolated from 4- to 6-week-old mice by using two-step differential centrifugations, as previously described^41 with minor modifications. In brief, after gallbladder removal, fresh liver specimens weighing 1.0-1.5 g were minced and homogenized in ice-cold isolation buffer (10 mM Tris/MOPS, 1 mM EGTA/Tris, and 200 mM sucrose, pH 7.4). When liver weight was less than 1 g, livers were pooled. Homogenate were centrifuged at 600 g and 4° C. for 10 min to remove cellular debris and nuclei. Supernatants containing mitochondrial fraction were then centrifuged at 7,000 g at 4° C. for 10 min. Obtained mitochondrial pellets were washed with new isolation buffer and underwent centrifugation again (7,000 g for 10 min). […] The protein concentration was determined with the BCA Protein Assay Kit (Thermo Fisher Scientific). Absorbance at 562 nm was measured with NanoDrop 2000 (Thermo Fisher Scientific).
Mitochondrial oxygen consumption was measured by using a Clark-type electrode (Oxytherm system; Hansatech Instruments, Norfolk, UK). […] The OCR through complex I was measured as a mitochondrial basic function by sequentially adding 2.5 mM malate/5 mM glutamate, 150 μM ADP, and 100 nM carbonyl cyanide 4-(trifluoromethoxy) phenylhydrazone (FCCP). The respiratory control index (RCI) was calculated by using the ratio of state 3 to state 4. […]

WT and Sqrdl^ΔN/ΔN MEFs = experiment: MEF mitochondrial membrane potential (JC-1 staining); type: cell-based, mouse
Method: To determine the membrane potential of mitochondria under several experimental conditions, JC-1 staining was performed according to the method previously reported ^37,38. Accumulation of the cell-permeable JC-1 probe (Abcam) in mitochondria depends on the membrane potential and is associated with a fluorescence emission shift from green (emission 527 nm) to red (emission 590 nm). Briefly, WT and Sqrdl^ΔN/ΔN MEFs, cultured in 8-well multichamber slides (Matsunami, Osaka, Japan) coated with collagen, were treated with mitochondrial ETC inhibitors (rotenone, atpenin A5, and antimycin A) the and ADP/ATP carrier inhibitor CATR^23 as described in the figure legends. For JC-1 staining, cultured cells were washed with HKRB buffer (20 mM HEPES, 103 mM NaCl, 4.77 mM KCl, 0.5 mM CaCl2, 1.2 mM MgCl2, 1.2 mM KH2PO4, 25 mM NaHCO3, and 15 mM glucose, pH 7.3), incubated with 20 μM JC-1 at 37° C. for 20 min, rinsed twice with HKRB buffer, and examined with a confocal laser scanning microscope (Nikon C2 plus, with NIS-Elements 5.01 software). ImageJ software was used for image processing and calculation of JC-1 fluorescence intensities.

[2] = test system: fission yeast (Schizosaccharomyces pombe); experiment: Chronological life span of yeast; type: cell-based
Method: Three single colonies derived from each strain were analyzed, as previously described^31 with slight modification. Yeast cells were cultured in SC medium (at a starting OD600 of 0.1) at 30° C. with shaking. Measurement of cell viability began after 72 h of culture (day 0) and continued every 2-3 days by plating a fraction of the culture onto a fresh YPD plate (2% glucose, 0.5% yeast extract, 1% peptone, and 2% agar) to determine the number of colony-forming units (CFUs). […] Cell survival rates were calculated by normalizing the CFUs at each time point to the CFUs at day 0.

[3] = test system: mitochondria from WT and Sqrdl^ΔN/ΔN MEFs; experiment: Membrane potential of isolated mitochondria (TMRE time-lapse imaging); set-up: species or system mouse; settings: for membrane potential of isolated mitochondria: supplementation to isolated MEF mitochondria
Method: MEF mitochondria were isolated by differential centrifugation. WT and Sqrdl^ΔN/ΔN MEFs were homogenized in the extraction buffer (10 mM Tris-HCl, 250 mM sucrose, and 0.5 mM EGTA, pH 7.4) with a Dounce homogenizer (Teflon glass) and were centrifuged at 2,000 g at 4° C. for 5 min to remove nuclei and cell debris. The supernatants were centrifuged at 12,000 g at 4° C. for 10 min, and mitochondrial pellets were washed three times with buffer and kept at −80° C. until use.
To determine the membrane potential in isolated mitochondria under several experimental conditions, TMRE staining was performed according to the method previously reported^40. The TMRE fluorescence intensity at a maximum emission of 574 nm depends on the mitochondrial membrane potential. Briefly, mitochondria from WT and Sqrdl^ΔN/ΔN MEFs were adsorbed on the bottom of 8-well μ-Slides (Ibidi, Martinsreid, Germany) coated with poly-D-lysine (Sigma-Aldrich, St. Luis, Mo., USA), after which they were stained with 10 nM TMRE (Biotium, Fremont, Calif., USA) and 50 nM MitoTracker Green FM (Thermo Fisher Scientific, Waltham, Mass., USA) at 25° C. for 10 min. TMRE fluorescence intensity (561 nm excitation and 605±15 nm emission), which is positive with MitoTracker Green FM fluorescence, was measured in individual mitochondria by using the region of interest (ROI) tool of the confocal laser scanning microscope (Nikon C2 plus, with NIS elements version 5.01 software). […] Specifically, of 200 ROIs, the top 30 ROIs were selected for analysis of TMRE fluorescence intensity in response to TMPD/ascorbate, and their means and s.d. values were calculated.

[4] = test system: fission yeast (Schizosaccharomyces pombe); type: cell-based; settings: SQR-deficient yeast (Δhmt2) compared with WT yeast; increasing/high concentrations
[5] = test system: isolated mitochondria from WT and Sqrdl^ΔN/ΔN MEFs; experiment: Quantification of sulfur metabolites in isolated mitochondria (LC-ESI-MS/MS); set-up: species or system mouse; settings: addition to isolated mitochondria
Method: Yeast, mouse tissues, and MEFs were analyzed for the low-molecular-weight analytes cysteine (CysSH), cysteine hydropersulfide (CysSSH), glutathione (GSH), glutathione hydropersulfide (GSSH), bis-S (H2S), bis-SS (HSSH), cystine (CysSSCys), oxidized glutathione, or glutathione disulfide (GSSG), oxidized glutathione trisulfide (GSSSG), and thiosulfate (HS2O3^−) as previously described^9. Briefly, samples were homogenized with a Psychotron homogenizer (Microtec Co. Ltd.) or sonicator in ice-cold methanol in the presence of 5 mM β-(4-hydroxyphenyl)ethyl iodoacetamide (HPE-IAM). Homogenates were incubated at 37° C. for 20 min and then centrifuged at 15,000 rpm at 4° C. for 10 min. Supernatants were separated and diluted 10 times with 0.1% formic acid. Stable isotope-labeled internal standards dissolved in 0.1% formic acid solution were added to the samples to a final concentration of 25 nM. A sample of 10 μl was injected into the LC-ESI-MS/MS instrument (LCMS-8060). Various persulfide derivatives were identified and quantified by means of MRM, as previously described^9. Cell pellets were reconstituted in 0.1% SDS in PBS buffer, homogenized by sonication, and centrifuged again at 15,000 rpm at 4° C. for 10 min. […] Each analyte concentration was normalized to the measured protein concentration. […]

[6] = WT MEFs, increasing concentrations in the culture media, SQR-dependent

## S [NaHS, sodium hydrosulfide]
[1]
  oxygen consumption: induced a small oxygen consumption only in WT mitochondria
WT and Sqrdl^ΔN/ΔN MEFs; [6]
  mitochondrial membrane potential: elevation of membrane potential
[2]; SQR-deficient yeast
  chronological lifespan: no effect
[2]; WT yeast
  chronological lifespan: extended the lifespan
[3]; 3 μM NaHS, isolated mitochondria
  membrane potential response to succinate, malate, and glutamate and to TMPD with ascorbate: retained the membrane potential response
[3]; isolated mitochondria, data not shown
  concentration at which the membrane potential response was halted: more than 30 μM
[3]
  membrane potential of isolated mitochondria: generated the membrane potential in an SQR-dependent manner

## [Cl][Cd][Cl] [Cd, CdCl2]
[4]
  susceptibility of yeast growth to the substance: enhanced susceptibility to Cd toxicity

## N[C@@H](CCC(=O)N[C@@H](CSSSC[C@H](NC(=O)CC[C@H](N)C(=O)O)C(=O)NCC(=O)O)C(=O)NCC(=O)O)C(=O)O [GSSSG, glutathione trisulfide]
[3]
  membrane potential of isolated mitochondria: increased the membrane potential
[5]
  levels of glutathione hydropersulfide (GSSH): increased levels of glutathione hydropersulfide (GSSH)

## antimycin A
WT and Sqrdl^ΔN/ΔN MEFs; WT MEFs
  effect on CATR-induced increase in membrane potential: reduced

## [Na+].[Na+].[S-][S-] [Na2S2, sodium disulfide]
WT and Sqrdl^ΔN/ΔN MEFs; [6]
  mitochondrial membrane potential: elevation of membrane potential
[2]; SQR-deficient yeast
  chronological lifespan: no effect
[2]; WT yeast
  chronological lifespan: extended the lifespan
[3]
  membrane potential of isolated mitochondria: results that were quite similar to those induced by NaHS

## C=C(C)[C@H]1Cc2c(ccc3c2O[C@@H]2COc4cc(OC)c(OC)cc4[C@@H]2C3=O)O1 [rotenone]
WT and Sqrdl^ΔN/ΔN MEFs; WT MEFs
  effect on CATR-induced increase in membrane potential: not significantly affected

## C=C1[C@@H]2CC[C@H]3[C@]4(C)C[C@H](O[C@@H]5O[C@H](CO)[C@@H](OS(=O)(=O)O)[C@H](OS(=O)(=O)O)[C@H]5OC(=O)CC(C)C)CC(C(=O)O)(C(=O)O)[C@H]4CC[C@]3(C2)[C@H]1O [CATR, carboxyatractyloside]
WT and Sqrdl^ΔN/ΔN MEFs; Sqrdl^ΔN/ΔN MEFs, CATR treatment
  mitochondrial membrane potential: did not observe this increase
WT and Sqrdl^ΔN/ΔN MEFs; WT MEFs, CATR treatment
  mitochondrial membrane potential: increased the membrane potential

## COc1[nH]c(=O)c(C(=O)[C@@H](C)C[C@H](C)[C@@H](Cl)CCl)c(O)c1OC [atpenin A5]
WT and Sqrdl^ΔN/ΔN MEFs; WT MEFs
  effect on CATR-induced increase in membrane potential: not significantly affected

## N[C@@H](CSSC[C@H](N)C(=O)O)C(=O)O [cystine]
WT and Sqrdl^ΔN/ΔN MEFs; [6]
  mitochondrial membrane potential: elevation of membrane potential

Reference: US20220127584A1, “Reactive persulfides mediate sulfur respiration in mitochondria via sulfide:quinone oxidoreductase” (Bio-Xcelerator, Inc., priority 2020, published 2022)
